These compounds were tested against PRMT5/MEP50 protein complex (Homo sapiens (Human), UniProt O14744) (assay: PRMT5 biochemical assay (3H-SAM methylation of H4(1-21) peptide, filter plate scintillation)). Settings: 10 nM PRMT5/MEP50 complex, 200 nM H4(1-21) peptide, 1 uM SAM, 25 minute incubation at room temperature.
Method: Biochemical Assay Methods
Compounds were solubilized in DMSO and serially diluted, using 3-fold dilutions, into 100% DMSO at a concentration 50-fold greater than the desired assay concentration. Following dilution, 1 ul was added to an empty 96-well microtiter plate. PRMT5/MEP50 protein complex was combined with H4(1-21) peptide ([…]) in PRMT5 assay buffer (50 mM Tris pH 8.5, 50 mM NaCl, 5 mM MgCl2, 1 mM EDTA, 1 mM TCEP) and 44 ul was added to the microtiter plate containing compound. S-Adenosyl-L-methionine (SAM) was prepared by combining ^3H labelled SAM with unlabelled SAM in PRMT5 assay buffer such that the final SAM concentration was 10 uM and the specific activity was 0.2 uCi/ul. The reaction was initiated by adding 5 ul of SAM stock to the microtiter plate. The final reaction conditions were 10 nM PRMT5/MEP50 complex, 200 nM peptide and 1 uM SAM. Following a 25 minute incubation at room temperature, the reaction was stopped with the addition of 100 uL of 20% TCA. The 3H-peptide product was captured using a 96-well filter plate (MSIPN4B, Millipore) and washed 5 times with PBS buffer. Scintillation fluid (100 ul) was added to the dried filter plate and counted in a liquid scintillation counter. IC50 values were determined by fitting the data to the standard 4-parameter dose response equation using Pfizer proprietary software.
Results for the biochemical assay of examples are summarized in Table 1, shown as IC50 values in μM.

Sequence of PRMT5/MEP50 protein complex (O14744 other isoform, or with tags, fused parts or gaps): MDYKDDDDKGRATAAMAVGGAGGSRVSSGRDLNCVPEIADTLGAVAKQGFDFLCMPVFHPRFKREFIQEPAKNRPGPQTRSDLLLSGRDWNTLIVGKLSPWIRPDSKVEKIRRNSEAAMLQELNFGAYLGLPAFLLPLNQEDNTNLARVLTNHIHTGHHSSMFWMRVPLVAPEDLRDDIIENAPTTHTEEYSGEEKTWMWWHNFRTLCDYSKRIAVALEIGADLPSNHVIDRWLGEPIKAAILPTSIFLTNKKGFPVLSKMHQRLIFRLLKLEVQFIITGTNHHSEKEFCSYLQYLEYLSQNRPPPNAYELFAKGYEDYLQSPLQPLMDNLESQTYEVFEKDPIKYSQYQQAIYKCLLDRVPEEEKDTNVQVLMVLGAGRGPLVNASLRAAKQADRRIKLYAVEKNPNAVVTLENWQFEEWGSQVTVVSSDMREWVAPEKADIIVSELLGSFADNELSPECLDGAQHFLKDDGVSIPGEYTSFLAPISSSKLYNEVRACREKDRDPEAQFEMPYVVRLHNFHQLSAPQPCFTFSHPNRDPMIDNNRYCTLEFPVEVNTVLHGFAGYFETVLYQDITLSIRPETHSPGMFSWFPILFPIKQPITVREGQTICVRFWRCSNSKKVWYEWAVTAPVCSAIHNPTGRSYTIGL
Sequence of PRMT5/MEP50 protein complex (Q9BQA1 whole entry partner): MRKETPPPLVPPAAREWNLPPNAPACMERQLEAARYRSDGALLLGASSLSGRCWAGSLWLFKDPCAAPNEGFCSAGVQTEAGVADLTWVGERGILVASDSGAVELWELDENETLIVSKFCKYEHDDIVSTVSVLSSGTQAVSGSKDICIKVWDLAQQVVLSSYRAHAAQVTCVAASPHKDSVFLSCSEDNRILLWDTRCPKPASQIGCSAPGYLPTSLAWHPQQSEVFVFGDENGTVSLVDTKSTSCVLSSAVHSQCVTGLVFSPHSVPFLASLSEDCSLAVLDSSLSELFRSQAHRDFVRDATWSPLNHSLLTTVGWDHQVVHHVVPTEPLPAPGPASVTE

SMILES | IC50
CN(c1cc(N)ncn1)[C@@H]1C[C@H]([C@H](O)c2ccc(F)c(F)c2)[C@@H](O)[C@H]1O [Example 43, (1R,2S,3R,5R)-3-[(6-aminopyrimidin-4-yl)(methyl)amino]-5-[(S)-(3,4-difluorophenyl) (hydroxy)methyl]cyclopentane-1,2-diol] | 879 nM
Cc1ncnc2c1ccn2[C@@H]1C[C@H]([C@@H](O)c2ccc(Cl)cc2CN)[C@@H](O)[C@H]1O [Example 54, (1S,2R,3R,5R)-3-((R)-(2-(aminomethyl)-4-chlorophenyl)(hydroxy)methyl)-5-(4-methyl-7H-pyrrolo[2,3-d]pyrimidin-7-yl)cyclopentane-1,2-diol] | 126 nM
Cc1ncnc2c1ccn2[C@@H]1C[C@H]([C@@H](O)c2cccc(Cl)c2)[C@@H](O)[C@H]1O [Example 8, (1S,2R,3R,5R)-3-[(R)-(3-chlorophenyl) (hydroxy)methyl]-5-(4-methyl-7H-pyrrolo[2,3-d]pyrimidin-7-yl)cyclopentane-1,2-diol] | 3390 nM
Cc1ncnc2c1ccn2[C@@H]1C[C@H]([C@@H](O)c2ccc(F)c(F)c2)[C@@H](O)[C@H]1O [Example 4, (1S,2R,5R)-3-[(R)-(3,4-difluorophenyl) (hydroxy)methyl]-5-(4-methyl-7H-pyrrolo[2,3-d]pyrimidin-7-yl)cyclopentane-1,2-diol] | 681 nM
CN(c1cc(N)ncn1)[C@@H]1C[C@H]([C@@H](O)c2ccc(F)c(F)c2)[C@@H](O)[C@H]1O [Example 44, (1R,2S,3R,5R)-3-[(6-aminopyrimidin-4-yl)(methyl)amino]-5-[(R)-(3,4-difluorophenyl)(hydroxy)methyl]cyclopentane-1,2-diol] | 17000 nM
Cc1nc(N)nc(N(C)[C@@H]2C[C@H]([C@H](O)c3ccc(F)c(F)c3)[C@@H](O)[C@H]2O)n1 [Example 41, (1R,2S,3R,5R)-3-[(4-amino-6-methyl-1,3,5-triazin-2-yl)(methyl)amino]-5-[(S)-(3,4-difluorophenyl) (hydroxy)methyl]cyclopentane-1,2-diol] | 46 nM
Cc1ncnc2c1ccn2[C@@H]1C[C@H](Oc2cc(Cl)c(Cl)cc2CN)[C@@H](O)[C@H]1O [Example 147, (1S,2S,3S,5R)-3-(2-(aminomethyl)-4,5-dichlorophenoxy)-5-(4-methyl-7H-pyrrolo[2,3-d]pyrimidin-7-yl)cyclopentane-1,2-diol] | 24 nM
Cc1ncnc2c1ccn2[C@@H]1C[C@H]([C@@H](O)c2ccc(F)c(Cl)c2)[C@@H](O)[C@H]1O [Example 6, (1S,2R,3R,5R)-3-[(R)-(3-chloro-4-fluorophenyl) (hydroxy)methyl]-5-(4-methyl-7H-pyrrolo[2,3-d]pyrimidin-7-yl)cyclopentane-1,2-diol] | 423 nM
Cc1ncnc2c1ccn2[C@@H]1C[C@H]([C@@H](C)O)[C@@H](O)[C@H]1O [Example 1, (1S,2R,3R,5R)-3-((R)-1-hydroxyethyl)-5-(4-methyl-7H-pyrrolo[2,3-d]pyrimidin-7-yl)cyclopentane-1,2-diol] | 510 nM
Cc1ncnc2c1ccn2[C@@H]1C[C@H](Oc2ccc(Cl)cc2OCCN)[C@@H](O)[C@H]1O [Example 153, (1S,2S,3S,5R)-3-(2-(2-aminoethoxy)-4-chlorophenoxy)-5-(4-methyl-7H-pyrrolo[2,3-d]pyrimidin-7-yl)cyclopentane-1,2-diol] | 5 nM
Cc1ncnc2c1ccn2[C@@H]1C[C@H](Cc2ccc(F)cc2)[C@@H](O)[C@H]1O [Example 58, (1S,2R,3S,5R)-3-(4-fluorobenzyl)-5-(4-methyl-7H-pyrrolo[2,3-d]pyrimidin-7-yl)cyclopentane-1,2-diol] | 289 nM
O[C@@H]1[C@H](O)[C@@H]([C@H](O)c2ccc(F)c(F)c2)C[C@H]1Nc1ncnc2[nH]ccc12 [Example 27, (1S,2R,3R,5R)-3-[(S)-(3,4-difluorophenyl)(hydroxy)methyl]-5-(7H-pyrrolo[2,3-d]pyrimidin-4-ylamino)cyclopentane-1,2-diol] | 449 nM
Cc1cccc(CC(O)[C@H]2C[C@@H](n3ccc4c(C)ncnc43)[C@H](O)[C@@H]2O)n1 (stereo partly drawn) [Example 15, (1S,2R,3R,5R)-3-[1-hydroxy-2-(6-methylpyridin-2-yl)ethyl]-5-(4-methyl-7H-pyrrolo[2,3-d]pyrimidin-7-yl)cyclopentane-1,2-diol] | > 200000 nM
Cc1cc2c(c(O[C@H]3C[C@@H](n4cc(F)c5cnc(C)nc54)[C@H](O)[C@@H]3O)c1)CNCC2 [Example 127, (1S,2S,3R,5S)-3-(5-fluoro-2-methyl-7H-pyrrolo[2,3-d]pyrimidin-7-yl)-5-((6-methyl-1,2,3,4-tetrahydroisoquinolin-8-yl)oxy)cyclopentane-1,2-diol] | 9 nM
CO[C@H]1C[C@@H](n2ccc3c(C)ncnc32)[C@H](O)[C@@H]1O [Example 60, (1S,2S,3S,5R)-3-methoxy-5-(4-methyl-7H-pyrrolo[2,3-d]pyrimidin-7-yl)cyclopentane-1,2-diol] | > 200000 nM
Cc1nc(N)nc2c1ccn2[C@@H]1C[C@H]([C@@H](O)c2ccc(F)c(F)c2)[C@@H](O)[C@H]1O [Example 49, (1R,2S,3R,5R)-3-(2-amino-4-methyl-7H-pyrrolo[2,3-d]pyrimidin-7-yl)-5-[(R)-(3,4-difluorophenyl)(hydroxy)methyl]cyclopentane-1,2-diol] | 105 nM
Cc1ncnc2c1ccn2[C@@H]1C[C@H]([C@@H](O)c2cc(F)c(F)c(F)c2)[C@@H](O)[C@H]1O [Example 14, (1S,2R,3R,5R)-3-[(R)-hydroxy(3,4,5-trifluorophenyl)methyl]-5-(4-methyl-7H-pyrrolo[2,3-d]pyrimidin-7-yl)cyclopentane-1,2-diol] | 719 nM

The remaining lines, values ahead:

IC50 | SMILES
77 nM | Cc1ncnc2c1ccn2[C@@H]1C[C@H](Oc2cccc(C(F)(F)F)c2CN)[C@@H](O)[C@H]1O [Example 144, (1S,2S,3S,5R)-3-(2-(aminomethyl)-3-(trifluoromethyl)phenoxy)-5-(4-methyl-7H-pyrrolo[2,3-d]pyrimidin-7-yl)cyclopentane-1,2-diol]
> 200000 nM | Cc1ncnc2c1ccn2[C@H]1C[C@@H](Oc2ccccc2C#N)[C@H](O)[C@@H]1O [Example 65, 2-(((1R,2R,3R,4S)-2,3-dihydroxy-4-(4-methyl-7H-pyrrolo[2,3-d]pyrimidin-7-yl)cyclopentyl)oxy)benzonitrile]
123 nM | Cc1ncnc2c1ccn2[C@@H]1C[C@H](Oc2ccc(F)cc2[C@@H](C)N)[C@@H](O)[C@H]1O [Example 137, (1S,2S,3S,5R)-3-(2-((R)-1-aminoethyl)-4-fluorophenoxy)-5-(4-methyl-7H-pyrrolo[2,3-d]pyrimidin-7-yl)cyclopentane-1,2-diol]
83 nM | Cc1ncnc2c1ccn2C1C[C@H](Oc2cccc3c2CNC3)[C@@H](O)[C@H]1O (stereo partly drawn) [Example 79, (1S,2S,3S,5R)-3-(2,3-dihydro-1H-isoindol-4-yloxy)-5-(4-methyl-7H-pyrrolo[2;3-d]pyrimidin-7-yl)cyclopentane-1,2-diol]
> 200000 nM | Cc1ncnc2c1ccn2[C@@H]1C[C@H](Oc2ccc(F)cc2C#N)[C@@H](O)[C@H]1O [Example 68, 2-(((1S,2S,3S,4R)-2,3-dihydroxy-4-(4-methyl-7H-pyrrolo[2,3-d]pyrimidin-7-yl)cyclopentyl)oxy)-5-fluorobenzonitrile]
25 nM | Cc1ncnc2c1ccn2[C@@H]1C[C@H](Oc2ccccc2CN)[C@@H](O)[C@H]1O [Example 62, (1S,2S,3S,5R)-3-(2-(aminomethyl)phenoxy)-5-(4-methyl-7H-pyrrolo[2,3-d]pyrimidin-7-yl)cyclopentane-1,2-diol]
6880 nM | Cc1ncnc2c1ccn2[C@@H]1C[C@H](Oc2ccc(F)cc2)[C@@H](O)[C@H]1O [Example 73, (1S,2S,3S,5R)-3-(4-fluorophenoxy)-5-(4-methyl-7H-pyrrolo[2,3-d]pyrimidin-7-yl)cyclopentane-1,2-diol]
71 nM | Cc1ncnc2c1ccn2[C@@H]1C[C@H](Oc2ccc(Cl)c(Cl)c2CN)[C@@H](O)[C@H]1O [Example 150, (1S,2S,3S,5R)-3-(2-(aminomethyl)-3,4-dichlorophenoxy)-5-(4-methyl-7H-pyrrolo[2,3-d]pyrimidin-7-yl)cyclopentane-1,2-diol]
5 nM | Cc1ncnc2c1ccn2[C@@H]1C[C@H](Oc2cccc3c2CNC[C@@H](C)O3)[C@@H](O)[C@H]1O [Example 209, (1S,2S,3S,5R)-3-(((R)-2-methyl-2,3,4,5-tetrahydrobenzo[f][1,4]oxazepin-6-yl)oxy)-5-(4-methyl-7H-pyrrolo[2,3-d]pyrimidin-7-yl)cyclopentane-1,2-diol]
604 nM | Cc1ncnc2c1ccn2[C@@H]1C[C@H](Oc2cccc3c2CC(N)CO3)[C@@H](O)[C@H]1O (single isomer, unassigned) [Example 189]
20 nM | Cc1ncnc2c1ccn2[C@@H]1C[C@H](Oc2cccc3c2CN(C)CC3)[C@@H](O)[C@H]1O [Example 83, (1S,2S,3S,5R)-3-((2-methyl-1,2,3,4-tetrahydroisoquinolin-8-yl)oxy)-5-(4-methyl-7H-pyrrolo[2,3-d]pyrimidin-7-yl)cyclopentane-1,2-diol]
